21 compounds from patent US20260159512A1, “BCAT2 INHIBITORS” (AGIOS PHARMACEUTICALS, INC., priority 2021, published 2026) can be followed below.

What is called IC50 is the concentration at which inhibition is half-maximal.

Assay [1] concerns the target T1, BCAT2 (Homo sapiens, UniProt O15382).
T1 sequence (O15382 28-392): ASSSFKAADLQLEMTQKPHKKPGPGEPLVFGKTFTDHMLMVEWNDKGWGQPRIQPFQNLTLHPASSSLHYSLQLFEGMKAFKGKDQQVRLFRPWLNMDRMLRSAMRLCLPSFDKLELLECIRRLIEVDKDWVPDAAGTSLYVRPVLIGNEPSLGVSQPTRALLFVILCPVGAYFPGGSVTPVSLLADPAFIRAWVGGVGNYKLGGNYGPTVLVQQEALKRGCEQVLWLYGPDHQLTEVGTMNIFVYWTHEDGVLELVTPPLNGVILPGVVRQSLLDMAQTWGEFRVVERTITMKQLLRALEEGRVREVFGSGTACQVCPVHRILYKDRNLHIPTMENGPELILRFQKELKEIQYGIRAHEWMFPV
The experiment in a line: BCAT2 in vitro enzyme inhibition assay (resazurin/diaphorase-coupled fluorescence). The format is biochemical. Set-up: key to BCAT2 Enzyme Inhibition: A: less than or equal to 0.100 μM; B: greater than 0.100 and less than or equal to 0.500 μM; C: greater than 0.500 and less than or equal to 1.000 μM; d: greater than 1.000 μM; E: no fit. The note with it: average where tested multiple times. The method, boiled down:
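Coupled fluorescence readout: glutamate formed from L-leucine/α-ketoglutarate transamination drives GDH/NAD/diaphorase reduction of resazurin (Ex 540/Em 590). Human BCAT2 was first exposed 1 h at room temperature to compound, top final 100 μM in 3-fold, 10-point series; substrate reaction ran 1 h before SDS quench, in technical duplicate with DMSO max and enzyme-free min controls.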

Assay [2] concerns the target T1, BCAT2. Nature of the assay: BCAT2 in vitro cell inhibition using engineered A549 cells (KMV cell assay, 13C6-KMV by LC-MS/MS). Format: cell-based. Conditions: average where tested multiple times. Set-up: The result was an engineered A549 cell line that expressed endogenous BCAT2; endogenous in cells; host or cells: A549 cells with MUT and BCAT1 knocked out by CRISPR/CAS9; key to BCAT2 Cell Inhibition: A: less than or equal to 0.100 μM; B: greater than 0.100 and less than or equal to 0.500 μM; C: greater than 0.500 and less than or equal to 1.000 μM; d: greater than 1.000 μM; E: no fit.

Where only a bound is given, the exact number is not on record here.

Turning to `N#Cc1ccc(-c2nc3cnc(-c4nc[nH]n4)cc3n2[C@@H]2CCC[C@H](NC(=O)c3ccc(Cl)s3)C2)c(F)c1` [Example 353, 5-chloro-N-((1S,3R)-3-(2-(4-cyano-2-fluorophenyl)-6-(1H-1,2,4-triazol-3-yl)-1H-imidazo[4,5-c]pyridin-1-yl)cyclohexyl)thiophene-2-carboxamide], the IC50 against BCAT2 [1] and against BCAT2 [2] was above 1000 nM in each case.
Turning to `CO[C@@H]1C[C@@H](NC(=O)c2ncc(Cl)s2)C[C@@H](n2c(-c3ncccc3F)nc3cnc(-c4nc[nH]n4)cc32)C1` (single isomer, unassigned) [Example 443], the concentration for half-maximal inhibition (IC50) on BCAT2 [1] is above 1000 nM. Further, the “BCAT2 Cell Inhibition” value on BCAT2 [2] was “E”.
In the same order, the values of `CC(C)Cc1nc2cnc(N3CCC[C@@H]3C#N)cc2n1[C@@H]1CCC[C@H](NC(=O)c2ncc(Cl)s2)C1` [Example 310, 5-chloro-N-((1S,3R)-3-(6-((R)-2-cyanopyrrolidin-1-yl)-2-isobutyl-1H-imidazo[4,5-c]pyridin-1-yl)cyclohexyl)thiazole-2-carboxamide] are above 1000 nM and “E”.
Compound `CNC(=O)c1ccc2c(c1)nc(-c1ccccn1)n2C1CC(O)CC(NC(=O)c2ncc(C(F)F)s2)C1` (stereo not drawn) [Example 294, 5-(difluoromethyl)-N-(3-hydroxy-5-(5-(methylcarbamoyl)-2-(pyridin-2-yl)-1H-benzo[d]imidazol-1-yl)cyclohexyl)thiazole-2-carboxamide] displayed a half-inhibitory concentration (IC50) against BCAT2 [1] of 500 to 1000 nM. The “BCAT2 Cell Inhibition” value at BCAT2 [2] was “E”.
In the same order, the values of `Cc1cnn(-c2cc3c(cn2)nc(CC(C)C)n3[C@H]2CCC[C@@H](NC(=O)c3ncc(Cl)s3)[C@@H]2O)n1` [Example 244, 5-chloro-N-((1R,2S,3S)-2-hydroxy-3-(2-isobutyl-6-(4-methyl-2H-1,2,3-triazol-2-yl)-1H-imidazo[4,5-c]pyridin-1-yl)cyclohexyl)thiazole-2-carboxamide] are above 1000 nM and “E”.
As to `COC[C@H]1CCCN1c1cc2c(cn1)nc(-c1ccccc1F)n2[C@@H]1CCC[C@H](NC(=O)c2ncc(Cl)s2)C1` [Example 198, 5-chloro-N-((1S,3R)-3-(2-(2-fluorophenyl)-6-((R)-2-(methoxymethyl)pyrrolidin-1-yl)-1H-imidazo[4,5-c]pyridin-1-yl)cyclohexyl)thiazole-2-carboxamide], the IC50 against BCAT2 [1] and against BCAT2 [2] was above 1000 nM in each case.
As to `CC(C)(C)Cc1nc2cnc(-c3ccccn3)cc2n1[C@H]1CCC[C@@H](NC(=O)c2ncc(Cl)s2)[C@@H]1O` [Example 390, 5-chloro-N-((1R,2S,3S)-2-hydroxy-3-(2-neopentyl-6-(pyridin-2-yl)-1H-imidazo[4,5-c]pyridin-1-yl)cyclohexyl)thiazole-2-carboxamide], the IC50 is 100 to 500 nM against BCAT2 [1] and above 1000 nM at BCAT2 [2].
For `CC(C)Cc1nc2cnc(-c3ccn(C)n3)cc2n1C1CC(O)CC(NC(=O)c2ncc(Cl)s2)C1` (stereo not drawn) [Example 210, 5-chloro-N-(3-hydroxy-5-(2-isobutyl-6-(1-methyl-1H-pyrazol-3-yl)-1H-imidazo[4,5-c]pyridin-1-yl)cyclohexyl)thiazole-2-carboxamide], the IC50 was at most 100 nM at BCAT2 [1] and 500 to 1000 nM on BCAT2 [2].
Turning to `Nc1cc2c(cn1)nc(-c1ccccc1F)n2[C@H]1C[C@H](O)C[C@@H](NC(=O)c2ncc(Cl)s2)C1` [Example 269, N-((1S,3R,5R)-3-(6-amino-2-(2-fluorophenyl)-1H-imidazo[4,5-c]pyridin-1-yl)-5-hydroxycyclohexyl)-5-chlorothiazole-2-carboxamide], the IC50 on BCAT2 [1] and against BCAT2 [2] was above 1000 nM throughout.
The compound `CC(C)Cc1nc2cnc(-c3ccn(C(F)F)n3)cc2n1[C@H]1CCC[C@@H](NC(=O)c2ncc(Cl)s2)[C@@H]1O` [Example 229, 5-chloro-N-((1R,2S,3S)-3-(6-(1-(difluoromethyl)-1H-pyrazol-3-yl)-2-isobutyl-1H-imidazo[4,5-c]pyridin-1-yl)-2-hydroxycyclohexyl)thiazole-2-carboxamide] displayed an IC50 on BCAT2 [1] of 500 to 1000 nM. In addition, the “BCAT2 Cell Inhibition” value on BCAT2 [2] is “E”.
For the compound `O=C(N[C@@H]1C[C@@H](O)C[C@H](n2c(-c3ccccc3F)nc3cnc(-c4nc[nH]n4)cc32)C1)c1ccc(Cl)s1` [Example 255, 5-chloro-N-((1S,3R,5R)-3-(2-(2-fluorophenyl)-6-(1H-1,2,4-triazol-3-yl)-1H-imidazo[4,5-c]pyridin-1-yl)-5-hydroxycyclohexyl)thiophene-2-carboxamide], the IC50 against BCAT2 [1] is at most 100 nM; against BCAT2 [2] it was 100 to 500 nM.
Turning to `CO[C@@H]1C[C@H](NC(=O)c2ncc(Cl)s2)C[C@H](n2c(CC(C)C)nc3cnc(-c4nc[nH]n4)cc32)C1` (stereo in doubt) [Example 431, 5-chloro-N-((1R,3S,5R)-3-(2-isobutyl-6-(1H-1,2,4-triazol-3-yl)-1H-imidazo[4,5-c]pyridin-1-yl)-5-methoxycyclohexyl)thiazole-2-carboxamide], the IC50 at BCAT2 [1] is 500 to 1000 nM; against BCAT2 [2] it was above 1000 nM.
At BCAT2 [1], `CC(C)Cc1nc2cnc(N3CCC[C@H]3C(C)(C)O)cc2n1[C@@H]1CCC[C@H](NC(=O)c2ncc(Cl)s2)C1` [Example 193, 5-chloro-N-((1S,3R)-3-(6-((S)-2-(2-hydroxypropan-2-yl)pyrrolidin-1-yl)-2-isobutyl-1H-imidazo[4,5-c]pyridin-1-yl)cyclohexyl)thiazole-2-carboxamide] registered an IC50 above 1000 nM. Besides, at BCAT2 [2], the “BCAT2 Cell Inhibition” value was “E”.
For `CC(C)(Cc1nc2cnc(-n3nccn3)cc2n1[C@@H]1CCC[C@H](NC(=O)c2ccc(Cl)s2)C1)C(=O)O` [Example 190, 3-(1-((1R,3S)-3-(5-chlorothiophene-2-carboxamido)cyclohexyl)-6-(2H-1,2,3-triazol-2-yl)-1H-imidazo[4,5-c]pyridin-2-yl)-2,2-dimethylpropanoic acid] the same measures were above 1000 nM and “E”.
On to `CC(C)Cc1nc2cnc(-n3nccn3)cc2n1[C@H]1C[C@H](O)C[C@@H](NC(=O)c2ccc(Cl)s2)C1` (single isomer, unassigned) [Example 396], for which the IC50 at BCAT2 [1] is at most 100 nM; at BCAT2 [2], above 1000 nM.
As to `O=C(N[C@@H]1CCCC[C@H](n2c(-c3ccccc3F)nc3cnc(-c4nc[nH]n4)cc32)[C@H]1O)c1ccc(Cl)s1` [Example 404, 5-chloro-N-((1R,2S,3S)-3-(2-(2-fluorophenyl)-6-(1H-1,2,4-triazol-3-yl)-1H-imidazo[4,5-c]pyridin-1-yl)-2-hydroxycycloheptyl)thiophene-2-carboxamide], the figures for the IC50 on BCAT2 [1] and against BCAT2 [2] were 100 to 500 nM and 500 to 1000 nM, respectively.
Take `CO[C@H]1C[C@H](NC(=O)c2ccc(Cl)s2)C[C@H](n2c(-c3ccccc3F)nc3cnc(-c4nc[nH]n4)cc32)C1` (stereo in doubt) [Example 411, 5-chloro-N-((1R,3S,5S)-3-(2-(2-fluorophenyl)-6-(1H-1,2,4-triazol-3-yl)-1H-imidazo[4,5-c]pyridin-1-yl)-5-methoxycyclohexyl)thiophene-2-carboxamide]: the IC50 against BCAT2 [1] is 100 to 500 nM; against BCAT2 [2], above 1000 nM.
For `O=C(N[C@@H]1CCC[C@H](n2c(-c3ccccc3F)nc3cnc(-n4nccn4)cc32)[C@H]1O)c1ncc(Cl)s1` [Example 114, 5-chloro-N-((1R,2S,3S)-3-(2-(2-fluorophenyl)-6-(2H-1,2,3-triazol-2-yl)-1H-imidazo[4,5-c]pyridin-1-yl)-2-hydroxycyclohexyl)thiazole-2-carboxamide], the IC50 at BCAT2 [1] and at BCAT2 [2] was 100 to 500 nM throughout.
`CC(C)Cc1nc2cnc(-n3cc(F)cn3)cc2n1[C@H]1CCC[C@@H](NC(=O)c2ncc(Cl)s2)[C@@H]1O` [Example 231, 5-chloro-N-((1R,2S,3S)-3-(6-(4-fluoro-1H-pyrazol-1-yl)-2-isobutyl-1H-imidazo[4,5-c]pyridin-1-yl)-2-hydroxycyclohexyl)thiazole-2-carboxamide] showed an IC50 against BCAT2 [1] above 1000 nM. The “BCAT2 Cell Inhibition” value on BCAT2 [2] was “E”.
Turning to `CO[C@@H]1[C@H](NC(=O)c2ncc(Cl)s2)CCC[C@@H]1n1c(-c2ccccc2F)nc2cnc(-c3nc[nH]n3)cc21` [Example 434, 5-chloro-N-((1R,2R,3S)-3-(2-(2-fluorophenyl)-6-(1H-1,2,4-triazol-3-yl)-1H-imidazo[4,5-c]pyridin-1-yl)-2-methoxycyclohexyl)thiazole-2-carboxamide], on BCAT2 [1], the “BCAT2 Enzyme Inhibition” value is recorded as “E”. The “BCAT2 Cell Inhibition” value on BCAT2 [2] is recorded as “E”.
Take `CC(C)Cc1nc2cnc(-n3cc(C(C)O)nn3)cc2n1[C@@H]1CCC[C@H](NC(=O)c2ncc(Cl)s2)C1` (stereo partly drawn) [Example 359, 5-chloro-N-((1S,3R)-3-(6-(4-(1-hydroxyethyl)-1H-1,2,3-triazol-1-yl)-2-isobutyl-1H-imidazo[4,5-c]pyridin-1-yl)cyclohexyl)thiazole-2-carboxamide]: at BCAT2 [1], the IC50 lay in the range of 100 to 500 nM. In addition, the “BCAT2 Cell Inhibition” value on BCAT2 [2] is “E”.
